Among the data in ChEMBL document CHEMBL3580594, “Synthesis and biological evaluation of 4-substituted fluoronucleoside analogs for the treatment of hepatitis B virus infection” (J Med Chem, 2015) are inhibition values, retold here.

Assay [1] deals with Hepatitis B virus. As to the kind of experiment: Antiviral activity against Hepatitis B virus in HepG2.2.15 cells assessed as inhibition of intracellular/extracellular viral DNA replication at 0.2 to 5 uM by real-time FQ-PCR analysis. The class given is functional, organism-based. The conditions noted are these: HepG2 2.2.15, TDE = time-dependent effect.
The test system of assay [2] is Hepatitis B virus. As to the kind of experiment: Antiviral activity against Hepatitis B virus in HepG2.2.15 cells assessed as inhibition of extracellular viral DNA replication at 0.2 uM after 3 days by real-time FQ-PCR analysis. The class given is functional. Conditions: HepG2 2.2.15, 72 h.

With `[N-]=[N+]=N[C@]1(CO)O[C@@H](n2ccc(NC3CC3)nc2=O)[C@@H](F)[C@@H]1O`, the inhibition entry with Hepatitis B virus [1] was “tde”. The inhibition at 0.2 µM in the assay with Hepatitis B virus [2] amounted to 33.8%.

By inhibition is commonly meant the change of the read-out against control, counted positive when it falls.
